≈ marks a conversion by molar mass, not a printed value.
Assays:
Type in all cases: cell-based
E. coli DCO (341098) = assay: MIC by agar dilution, E. coli DCO (341098); settings: Escherichia coli, Diagnostic Sensitivity Test agar, inoculum 10^4 CFU/spot
From the text: (§1) The pharmaceutically acceptable carbapenem compounds of the present invention are useful antibacterial agents having a broad spectrum of activity in vitro against standard laboratory microorganisms, both Gram-negative and Gram-positive, which are used to screen for activity against pathogenic bacteria. The antibacterial spectrum and potency of a particular compound may be determined in a standard test system. In particular the carbapenems of the present invention show good stability to beta-lactamases and have particularly high activity in vitro against strains of Pseudomonas aeruginosa and other Gram-negative aerobic bacteria.
(§2) The following results were obtained for representative compounds on a standard in vitro test system using Diagnostic Sensitivity Test agar medium. The antibacterial activity is described in terms of the minimum inhibitory concentration (M1C) determined by the agar-dilution technique with an inoculum size of 10^4 CFU/spot.

S. dublin (369001) = assay: MIC by agar dilution, S. dublin (369001); settings: Salmonella enterica, Diagnostic Sensitivity Test agar, inoculum 10^4 CFU/spot
From the text: as §1, §2

Strep. pyogenes (681018) = assay: MIC by agar dilution, Strep. pyogenes (681018); settings: Streptococcus pyogenes, Diagnostic Sensitivity Test agar, inoculum 10^4 CFU/spot
From the text: as §1, §2

St. aureus 147N (601052) = assay: MIC by agar dilution, St. aureus 147N (601052); settings: Staphylococcus aureus, Diagnostic Sensitivity Test agar, inoculum 10^4 CFU/spot
From the text: as §1, §2

Serr. marcesens (421003) = assay: MIC by agar dilution, Serr. marcesens (421003); settings: Diagnostic Sensitivity Test agar, inoculum 10^4 CFU/spot
From the text: as §1, §2

[1] = test system: P. aeruginosa 18S (101024); assay: MIC by agar dilution, P. aeruginosa 18S (101024); settings: Pseudomonas aeruginosa, Diagnostic Sensitivity Test agar, inoculum 10^4 CFU/spot
From the text: as §1, §2

[2] = test system: Ent. cloacae P99^- (401054); assay: MIC by agar dilution, Ent. cloacae P99^- (401054); settings: Enterobacter cloacae
From the text: as §1, §2

[3] = test system: P. aeruginosa PU21 (101028); assay: MIC by agar dilution, P. aeruginosa PU21 (101028); settings: Pseudomonas aeruginosa, Diagnostic Sensitivity Test agar, inoculum 10^4 CFU/spot
From the text: as §1, §2

Pr. morganii (433001) = assay: MIC by agar dilution, Pr. morganii (433001); settings: Morganella morganii, Diagnostic Sensitivity Test agar, inoculum 10^4 CFU/spot
From the text: as §1, §2

[4] = test system: B. fragilis AMP R (542008); assay: MIC by agar dilution, B. fragilis AMP R (542008); settings: Bacteroides fragilis, Diagnostic Sensitivity Test agar, inoculum 10^4 CFU/spot
From the text: as §1, §2

[5] = test system: P. aeruginosa 18S IMIR (101148); assay: MIC by agar dilution, P. aeruginosa 18S IMIR (101148); settings: Pseudomonas aeruginosa
From the text: as §1, §2

Q: Which results are given for C[C@@H](O)[C@H]1C(=O)N2C(C(=O)O)=C(S[C@@H]3CN[C@H](CNC(=O)c4cc(O)c(O)c(C#N)c4)C3)[C@H](C)[C@H]12 [Example 3, (1R,5R,6S,8R,2'S,4'S)-2-(2-(5-cyano-3,4-dihydroxybenzoylaminomethyl)pyrrolidin-4-ylthio)-6-(1-hydroxyethyl)-1-methyulcarbapenem-3carboxylic acid]?
A: MIC (E. coli DCO (341098)): 0.03 µg/mL (≈ 0.0597 µM); MIC (S. dublin (369001)): 0.06 µg/mL (≈ 0.119 µM); MIC (Strep. pyogenes (681018)): 0.008 µg/mL (≈ 0.0159 µM); MIC (St. aureus 147N (601052)): 0.125 µg/mL (≈ 0.249 µM); MIC (Serr. marcesens (421003)): 0.25 µg/mL (≈ 0.497 µM); MIC [1]: 0.125 µg/mL (≈ 0.249 µM); MIC [2]: 0.03 µg/mL (≈ 0.0597 µM); MIC [3]: 0.25 µg/mL (≈ 0.497 µM); MIC (Pr. morganii (433001)): 0.5 µg/mL (≈ 0.995 µM); MIC [4]: 4 µg/mL (≈ 7.96 µM); MIC [5]: 0.125 µg/mL (≈ 0.249 µM)

— patent US5447925A, “Antibiotic compounds” (Imperial Chemical Industries PLC, priority 1991, dated 1995)
